Experimental data from patent US20230151334A1, “CULTURE PLATFORMS, METHODS, AND USES THEREOF” (HELSINGIN YLIOPISTO, priority 2020, published 2023).
“Also recorded” adds a separate entry of the source.

How the values were obtained:
MMECs = assay: Immunofluorescent staining of nuclear ERα in MMECs after compound exposure; type: cell-based, mouse; settings: MMECs after exposure to compound
Description: Mouse primary mammary epithelial fragments were isolated with 0.2% collagenase for 1 h at +37° C. Media used for the mouse tissue was DMEM/F12 (Thermo Fisher Scientific) supplemented with 5% horse serum, 5 ug/mL Insulin, 1 µg/mL hydrocortisone, 10 ng/mL EGF, and 100 U PenStrep.
For immunofluorescent analysis 3D cultured breast cancer fragments were fixed with 4% paraformaldehyde for 20 min at room temperature and washed three times with PBS. The tissue fragments were permeabilized with 0.25% Triton X-100 in PBS for 10 min at RT and blocked in IF buffer (7.7 mM NaN3, 0.1% BSA, 0.2% Triton X-100, and 0.05% Tween 20 in PBS) supplemented with 10% (vol/vol) normal goat serum for1-1.5 h. The fragments were then incubated with the primary antibody diluted in blocking solution overnight at +4° C. Following incubation, fragments were washed three times with IF buffer (20 min each wash) and then incubated with the appropriate Alexa Fluor secondary antibody diluted in IF buffer with 10% goat serum. After 60 min of incubation at RT, the fragments were washed with IF buffer as before and the nuclei were counterstained with Hoechst 33258 (Sigma). Slides containing tissue fragments were mounted with ImmuMount reagent. Images of the structures were acquired using a Leica TCS SP8 CARS confocal microscope using a HC PL APO CS2 40x objective. […]

PDEC-N and PDEC-BC = assay: Immunofluorescent staining of nuclear ERα and phosphorylated p38 in PDEC-N and PDEC-BC after compound exposure; type: cell-based, human
Description: Fresh tissue was obtained from elective breast cancer surgeries. Tissue was collected from both the tumor tissue and the area surrounding the tumor (non-tumor samples). Also tissue from reduction mammoplasties (RMP) were collected. From every tumor, one portion was taken for immunohistochemical analysis (IHC), for DNA/RNA/protein isolation, and the rest was used for isolation of fragments and 3D culture. For isolation of human breast cancer fragments, breast cancer tissue was incubated with 0.2% collagenase in MammoCult media produced by StemCell technologies (supplemented with 4 ug/mL heparin, MammoCult proliferation supplements, 0.1 µg/mL 10.000 UI/mL PenStrep, Amphotericin, and 25 µg/mL Gentamycin) with gentle shaking at 37° C. overnight. The resulting cell suspension was then centrifuged at 1,300 rpm for 3 min, washed once with MammoCult and plated in 8-chamber plates. Matrices used for the cultures were: Agarose (UltraPure™ Low Melting Point Agarose, Invitrogen™), Collagen (Collagen I Rat tail, Corning), Matrigel (Matrigel Basement Matrix Growth Factor Reduced, 8.8 mg/mL, Corning), Egg white, Ovomucine, GrowDex (15 mg/mL, UPM-Kymmene OYj), Alginate (Alginic acid sodium salt, Aldrich) and Alginate-RGD (Sodium Alginate MVG GRGDSP, NovaMatrix, NOVATACH). Ovomucin was isolated from chicken egg whites according to an established protocol (Omana and Wu, 2009, J Agric Food Chem 57, 3596-3603). Briefly, ovomucin was isolated from egg white using isoelectric precipitation in the presence of 100 mM NaCl solution at pH adjusted to 6.0. The resulting mixture was stored overnight at 4° C. in a refridgerator followed by centrifugation. The precipitate was re-suspended in 500 mM NaCl solution at pH 6.0 again and stored overnight at 4° C. The dispersion was centrifuged, and the precipitate was purified by dialyzing against water overnight. Dialysed sample was freeze-dried under the vacuum. For gelation, the solid ovomucin powder was dissolved in MilliQ (18 W) water using Ultra-Turrax (IKA) mixer.
For immunofluorescent analysis 3D cultured breast cancer fragments were fixed with 4% paraformaldehyde for 20 min at room temperature and washed three times with PBS. The tissue fragments were permeabilized with 0.25% Triton X-100 in PBS for 10 min at RT and blocked in IF buffer (7.7 mM NaN3, 0.1% BSA, 0.2% Triton X-100, and 0.05% Tween 20 in PBS) supplemented with 10% (vol/vol) normal goat serum for1-1.5 h. The fragments were then incubated with the primary antibody diluted in blocking solution overnight at +4° C. Following incubation, fragments were washed three times with IF buffer (20 min each wash) and then incubated with the appropriate Alexa Fluor secondary antibody diluted in IF buffer with 10% goat serum. After 60 min of incubation at RT, the fragments were washed with IF buffer as before and the nuclei were counterstained with Hoechst 33258 (Sigma). Slides containing tissue fragments were mounted with ImmuMount reagent. Images of the structures were acquired using a Leica TCS SP8 CARS confocal microscope using a HC PL APO CS2 40x objective.
(§1) We observed stress-responsive mitogen-activated protein kinase (MAPKs) pathway activated in the in LMx-Ag, compared to LMx-Al. The nuclear expression of phosphorylated p38 was also visible in the MMECs cultured in LMx-Ag. To confirm the role of stress-responsive mitogen-activated protein kinases in the ERα activation, we used anisomycin to directly activate the pathway in TNBC cell line, DU4475. […] We used inhibitor of the methyltransferase EZH2, which mediates the silencing of ERα and observed the retained expression of ERα (FIG. 4D).

TNBC cell line DU4475 = assay: Immunofluorescent staining of nuclear ERα in TNBC cell line DU4475 after EZH2 inhibitor; type: cell-based; settings: TNBC cell line DU4475 after exposure to compound
TNBC cell line, DU4475 = assay: Western blot of ERα in TNBC cell line after anisomycin treatment; type: cell-based
Text: as §1

[1] = tested on: ERα downstream targets PGR and GREB1 in PDEC-BC; assay: QRT-PCR of ERα target genes in PDEC-BC cultures after tamoxifen/antiestrogen treatment; type: cell-based, human
Description: Instead of anisomycin, the stress activated protein kinase pathway is also activated by multiple other factors e.g oxidative stress. We observed, if the PDEC cultures were performed under a higher oxygen concentration, such as in air-liquid interface, the functional ERα was preserved together with the activation of p38 (FIG. 5A). We treated these PDEC-BC with antiestrogens and observed a suppression in ERα downstream targets PGR and GREB1 (FIG. 5B).
We exposed the human PDEC-N and PDEC-BC cultures to the additional compressive forces with the magnet mediated mechanical compression (FIG. 5C). […] We treated the compressed PDEC-BC with tamoxifen and observed a suppression in ERα downstream targets PGR and GREB1 (FIG. 5E).

[2] = PDEC-BC (PDEC-T) after exposure to compound
[3] = PDEC-N after exposure to compound
[4] = PDEC-BC exposed to magnet-mediated compression

SMILES | nuclear ERα (immunofluorescent staining) (MMECs) | nuclear ERα (immunofluorescent staining) (PDEC-N and PDEC-BC; [2]) | nuclear ERα (immunofluorescent staining) (PDEC-N and PDEC-BC; [3]) | nuclear ERα (immunofluorescent staining) (TNBC cell line DU4475) | ERα expression (Western blot) (TNBC cell line, DU4475) | phosphorylated p38 (immunofluorescent staining) (PDEC-N and PDEC-BC; PDEC-BC after exposure to compound) | phosphorylated p38 (immunofluorescent staining) (PDEC-N and PDEC-BC; [3]) | GREB1 expression [1, 4] | PGR expression (QRT-PCR) [1, 4] | PGR expression (QRT-PCR) ([1]; PDEC-BC exposed to magnet-mediated compression, listed as Tamoxifen) | PGR expression (QRT-PCR) ([1]; air-liquid interface (ALI) cultured PDEC-BC, o/n treatment)
CC[C@H](C)n1cc(C)c2c(C(=O)NCc3c(C)cc(C)[nH]c3=O)cc(-c3ccc(N4CCNCC4)nc3)cc21 [GSK-126] | activation of nuclear ERα | activation of nuclear ERα | activation of nuclear ERα | activation of nuclear ERα |  |  |  |  |  |  | 
COc1ccc(C[C@H]2NC[C@H](O)[C@H]2OC(C)=O)cc1 [anisomycin] | activation of nuclear ERα | activation of nuclear ERα | activation of nuclear ERα |  | able to activate the ERα expression; also recorded: upregulation of ERα | activation of phosphorylated-38 | activation of phosphorylated-38 |  |  |  | 
CC/C(=C(\c1ccccc1)c1ccc(OCCN(C)C)cc1)c1ccccc1 [tamoxifen] |  |  |  |  |  |  |  | suppression | suppression | suppresses | downregulation
